Laboratory results reported in patent publication US6737383B1, “Herbicidal oxadiazolidines” (priority 1999, dated 2004).

Tests used:
bedstraw = test: Test B pre/postemergence bedstraw; format: in vivo, Galium aparine
Outline: (§1)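 Response is a visual 0-to-10 score relative to untreated plants, where 0 means no effect and 10 means complete control, taken twelve to sixteen days after application. Treatments went onto soil at planting and onto foliage of 1- to 4-leaf plants, using a surfactant-containing non-phytotoxic solvent.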

blackgrass = test: Test B pre/postemergence blackgrass; format: in vivo, Alopecurus myosuroides
Outline: as §1

surinam grass = test: Test B pre/postemergence surinam grass; format: in vivo, Brachiaria decumbens
Outline: as §1

cocklebur = test: Test B pre/postemergence cocklebur; format: in vivo, Xanthium strumarium
Outline: as §1

corn = test: Test B pre/postemergence corn; format: in vivo, Zea mays
Outline: as §1

crabgrass = test: Test B pre/postemergence crabgrass; format: in vivo, Digitaria sanguinalis
Outline: as §1

giant foxtail = test: Test B pre/postemergence giant foxtail; format: in vivo, Setaria faberii
Outline: as §1

rape = test: Test B pre/postemergence rape; format: in vivo, Brassica napus
Outline: as §1

soybean = test: Test B pre/postemergence soybean; format: in vivo, Glycine max
Outline: as §1

sugar beet = test: Test B pre/postemergence sugar beet; format: in vivo, Beta vulgaris
Outline: as §1

velvetleaf = test: Test B pre/postemergence velvetleaf; format: in vivo, Abutilon theophrasti
Outline: as §1

wheat = test: Test B pre/postemergence wheat; format: in vivo, Triticum aestivum
Outline: as §1

purple nutsedge = test: Test B pre/postemergence purple nutsedge; format: in vivo, Cyperus rotundus
Outline: as §1

rice = test: Test B flood test rice; format: in vivo, Oryza sativa
Outline: (§2)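 Plants were grown to the 2-leaf stage before treatment with test chemical, then held in a greenhouse for twelve to sixteen days. Injury was visually rated against untreated controls on a 0–10 scale, where 0 is no effect and 10 is complete control.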

smallflower flatsedge = test: Test B flood test smallflower flatsedge; format: in vivo, Cyperus difformis
Outline: as §2

duck salad = test: Test B flood test duck salad; format: in vivo, Heteranthera limosa
Outline: as §2

bamyardgrass = test: Test B flood test barnyardgrass; format: in vivo, Echinochloa crus-galli
Outline: as §2

[1] = Postemergence, Rate 62 g/ha, scale 0 to 10, 0 is no effect, 10 is complete control
[2] = Postemergence, Rate 250 g/ha, scale 0 to 10, 0 no effect, 10 complete control
[3] = Preemergence, Rate 62 g/ha, scale 0 to 10 (0 no effect, 10 complete control)
[4] = Preemergence, Rate 125 g/ha, scale 0 to 10 (0 no effect, 10 complete control)
[5] = Preemergence, Rate 250 g/ha, scale of 0 to 10 where 0 is no effect and 10 is complete control
[6] = Rate 125 g/ha, Postemergence, scale 0 to 10, 0 no effect, 10 complete control
[7] = Rate 500 g/ha, Postemergence, scale 0 to 10, 0 no effect, 10 complete control
[8] = Preemergence, Rate 500 g/ha, scale 0 (no effect) to 10 (complete control)
[9] = Rate 125 g/ha, Postemergence section (flood test species), scale 0 to 10, 0 no effect, 10 complete control
[10] = Rate 500 g/ha, listed under Postemergence (flood test species), scale 0 to 10, 0 no effect, 10 complete control
[11] = flood test, listed under Postemergence, Rate 250 g/ha, scale 0 to 10, 0 no effect, 10 complete control

Compound: Cc1cccc(C(C)C)c1-n1c(=O)on(C(=O)N(c2ccc(Cl)cc2)C(C)C)c1=O [Compound 64]
- Bedstraw plant response rating (bedstraw; [1]): 0
- Bedstraw plant response rating (bedstraw; [2]): 0
- Bedstraw plant response rating (bedstraw; [3]): 0
- Plant response rating, Bedstraw (bedstraw; [4]): 0
- Plant response rating, Bedstraw (bedstraw; [5]): 0
- Bedstraw plant response rating (bedstraw; [6]): 0
- Bedstraw plant response rating (bedstraw; [7]): 0
- Blackgrass plant response rating (blackgrass; [1]): 0
- Blackgrass plant response rating (blackgrass; [2]): 0
- Blackgrass plant response rating (blackgrass; [3]): 0
- Plant response rating, Blackgrass (blackgrass; [4]): 0
- Plant response rating, Blackgrass (blackgrass; [5]): 0
- Blackgrass plant response rating (blackgrass; [8]): 0
- Blackgrass plant response rating (blackgrass; [6]): 0
- Blackgrass plant response rating (blackgrass; [7]): 0
- B. signalgrass plant response rating (surinam grass; [1]): 0
- B. signalgrass plant response rating (surinam grass; [2]): 0
- B. signalgrass plant response rating (surinam grass; [3]): 0
- Plant response rating, B. signalgrass (surinam grass; [4]): 0
- Plant response rating, B. signalgrass (surinam grass; [5]): 0
- B. signalgrass plant response rating (surinam grass; [8]): 0
- B. signalgrass plant response rating (surinam grass; [6]): 0
- B. signalgrass plant response rating (surinam grass; Rate 500 g/ha, Postemergence, scale of 0 to 10 where 0 is no effect and 10 is complete control): 0
- Cocklebur plant response rating (cocklebur; [1]): 0
- Cocklebur plant response rating (cocklebur; [2]): 0
- Cocklebur plant response rating (cocklebur; [3]): 0
- Plant response rating, Cocklebur (cocklebur; [4]): 0
- Plant response rating, Cocklebur (cocklebur; [5]): 0
- Cocklebur plant response rating (cocklebur; [8]): 0
- Cocklebur plant response rating (cocklebur; [6]): 0
- Cocklebur plant response rating (cocklebur; [7]): 0
- Corn plant response rating (corn; [1]): 0
- Corn plant response rating (corn; [2]): 0
- Corn plant response rating (corn; [3]): 0
- Plant response rating, Corn (corn; [4]): 0
- Plant response rating, Corn (corn; [5]): 0
- Corn plant response rating (corn; [8]): 0
- Corn plant response rating (corn; [6]): 0
- Corn plant response rating (corn; [7]): 0
- Crabgrass plant response rating (crabgrass; [1]): 0
- Crabgrass plant response rating (crabgrass; [2]): 0
- Crabgrass plant response rating (crabgrass; [3]): 0
- Plant response rating, Crabgrass (crabgrass; [4]): 0
- Plant response rating, Crabgrass (crabgrass; [5]): 2
- Crabgrass plant response rating (crabgrass; [8]): 3
- Crabgrass plant response rating (crabgrass; [6]): 0
- Crabgrass plant response rating (crabgrass; [7]): 0
- Giant foxtail plant response rating (giant foxtail; [1]): 0
- Giant foxtail plant response rating (giant foxtail; [2]): 0
- Giant foxtail plant response rating (giant foxtail; [3]): 0
- Plant response rating, Giant foxtail (giant foxtail; [4]): 0
- Plant response rating, Giant foxtail (giant foxtail; [5]): 3
- Giant foxtail plant response rating (giant foxtail; [8]): 4
- Giant foxtail plant response rating (giant foxtail; [6]): 0
- Giant foxtail plant response rating (giant foxtail; [7]): 0
- Rape plant response rating (rape; [1]): 0
- Rape plant response rating (rape; [2]): 0
- Rape plant response rating (rape; [3]): 0
- Plant response rating, Rape (rape; [4]): 0
- Plant response rating, Rape (rape; [5]): 0
- Rape plant response rating (rape; [8]): 0
- Rape plant response rating (rape; [6]): 0
- Rape plant response rating (rape; [7]): 0
- Soybean plant response rating (soybean; [1]): 0
- Soybean plant response rating (soybean; [2]): 0
- Soybean plant response rating (soybean; [3]): 0
- Plant response rating, Soybean (soybean; [4]): 0
- Plant response rating, Soybean (soybean; [5]): 0
- Soybean plant response rating (soybean; [8]): 0
- Soybean plant response rating (soybean; [6]): 0
- Soybean plant response rating (soybean; [7]): 1
- Sugarbeets plant response rating (sugar beet; [1]): 0
- Sugarbeets plant response rating (sugar beet; [2]): 0
- Sugarbeets plant response rating (sugar beet; [3]): 0
- Plant response rating, Sugarbeets (sugar beet; [4]): 0
- Plant response rating, Sugarbeets (sugar beet; [5]): 0
- Sugarbeets plant response rating (sugar beet; [8]): 0
- Sugarbeets plant response rating (sugar beet; [6]): 0
- Sugarbeets plant response rating (sugar beet; [7]): 0
- Velvetleaf plant response rating (velvetleaf; [1]): 0
- Velvetleaf plant response rating (velvetleaf; [2]): 0
- Velvetleaf plant response rating (velvetleaf; [3]): 0
- Plant response rating, Velvetleaf (velvetleaf; [4]): 0
- Plant response rating, Velvetleaf (velvetleaf; [5]): 0
- Velvetleaf plant response rating (velvetleaf; [8]): 0
- Velvetleaf plant response rating (velvetleaf; [6]): 0
- Velvetleaf plant response rating (velvetleaf; [7]): 0
- Wheat plant response rating (wheat; [1]): 0
- Wheat plant response rating (wheat; [2]): 0
- Wheat plant response rating (wheat; [3]): 0
- Plant response rating, Wheat (wheat; [4]): 0
- Plant response rating, Wheat (wheat; [5]): 0
- Wheat plant response rating (wheat; [8]): 0
- Wheat plant response rating (wheat; [6]): 0
- Wheat plant response rating (wheat; [7]): 0
- Nutsedge plant response rating (purple nutsedge; [1]): 0
- Nutsedge plant response rating (purple nutsedge; [2]): 0
- Nutsedge plant response rating (purple nutsedge; [3]): 0
- Plant response rating, Nutsedge (purple nutsedge; [4]): 0
- Plant response rating, Nutsedge (purple nutsedge; [5]): 0
- Nutsedge plant response rating (purple nutsedge; [6]): 0
- Nutsedge plant response rating (purple nutsedge; [7]): 0
- Rice plant response rating (rice; [1]): 0
- Rice plant response rating (rice; [9]): 0
- Rice plant response rating (rice; [10]): 0
- Rice plant response rating (rice; [11]): 0
- S. Flatsedge plant response rating (smallflower flatsedge; [1]): 0
- S. Flatsedge plant response rating (smallflower flatsedge; [9]): 0
- S. Flatsedge plant response rating (smallflower flatsedge; [10]): 0
- S. Flatsedge plant response rating (smallflower flatsedge; [11]): 0
- Ducksalad plant response rating (duck salad; [1]): 0
- Ducksalad plant response rating (duck salad; [9]): 0
- Ducksalad plant response rating (duck salad; [10]): 0
- Ducksalad plant response rating (duck salad; [11]): 0
- Barnyardgrass plant response rating (bamyardgrass; [1]): 0
- Barnyardgrass plant response rating (bamyardgrass; [9]): 0
- Barnyardgrass plant response rating (bamyardgrass; [10]): 0
- Barnyardgrass plant response rating (bamyardgrass; [11]): 0
